Assay results as given in the supplement of paper PMC10307832.

Tests used:
Test in all cases: relative viability (nuclei count vs DMSO), 5 days (fraction); higher = more cells survive
AGI-6780 + Luminespib = compound: O=C(Nc1cccc(C(F)(F)F)c1)Nc1cc(S(=O)(=O)NC2CC2)ccc1-c1ccsc1 [AGI-6780] + CCNC(=O)c1noc(-c2cc(C(C)C)c(O)cc2O)c1-c1ccc(CN2CCOCC2)cc1 [Luminespib] (partner 0.01 µM)
In short: (§1)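 Lung cancer cell lines, seeded in 1536-well plates, were treated the following day by pin tool with a single drug or with five library-drug doses (not always all listed) in √10 steps on top of a fixed anchor-drug dose. Cells were fixed and nuclei stained in one step after 5 days, and nuclei were counted. Relative viability is the nuclei count for treated wells divided by that for vehicle wells, reported as medians of duplicate plates.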

AGI-6780 + Dasatinib = compound: O=C(Nc1cccc(C(F)(F)F)c1)Nc1cc(S(=O)(=O)NC2CC2)ccc1-c1ccsc1 [AGI-6780] + Cc1nc(Nc2ncc(C(=O)Nc3c(C)cccc3Cl)s2)cc(N2CCN(CCO)CC2)n1 [Dasatinib] (partner 0.075 µM)
In short: as §1

AGI-6780 + Bortezomib = compound: O=C(Nc1cccc(C(F)(F)F)c1)Nc1cc(S(=O)(=O)NC2CC2)ccc1-c1ccsc1 [AGI-6780] + CC(C)C[C@H](NC(=O)[C@H](Cc1ccccc1)NC(=O)c1cnccn1)B(O)O [Bortezomib] (partner 0.002 µM)
In short: as §1

AGI-6780 + Navitoclax = compound: O=C(Nc1cccc(C(F)(F)F)c1)Nc1cc(S(=O)(=O)NC2CC2)ccc1-c1ccsc1 [AGI-6780] + CC1(C)CCC(c2ccc(Cl)cc2)=C(CN2CCN(c3ccc(C(=O)NS(=O)(=O)c4ccc(N[C@H](CCN5CCOCC5)CSc5ccccc5)c(S(=O)(=O)C(F)(F)F)c4)cc3)CC2)C1 [Navitoclax] (partner 0.5 µM)
In short: as §1

Cell Line | relative viability (AGI-6780 + Luminespib; first compound 0.08 µM) | relative viability (AGI-6780 + Luminespib; first compound 0.253 µM) | relative viability (AGI-6780 + Luminespib; first compound 0.8 µM) | relative viability (AGI-6780 + Luminespib; first compound 2.53 µM) | relative viability (AGI-6780 + Luminespib; first compound 8 µM) | relative viability (AGI-6780 + Dasatinib; first compound 0.08 µM) | relative viability (AGI-6780 + Dasatinib; first compound 0.253 µM) | relative viability (AGI-6780 + Dasatinib; first compound 0.8 µM) | relative viability (AGI-6780 + Dasatinib; first compound 2.53 µM) | relative viability (AGI-6780 + Dasatinib; first compound 8 µM) | relative viability (AGI-6780 + Bortezomib; first compound 0.08 µM) | relative viability (AGI-6780 + Bortezomib; first compound 0.253 µM) | relative viability (AGI-6780 + Bortezomib; first compound 0.8 µM) | relative viability (AGI-6780 + Bortezomib; first compound 2.53 µM) | relative viability (AGI-6780 + Bortezomib; first compound 8 µM) | relative viability (AGI-6780 + Navitoclax; first compound 0.08 µM) | relative viability (AGI-6780 + Navitoclax; first compound 0.253 µM) | relative viability (AGI-6780 + Navitoclax; first compound 0.8 µM) | relative viability (AGI-6780 + Navitoclax; first compound 2.53 µM) | relative viability (AGI-6780 + Navitoclax; first compound 8 µM)
NCI-H358 | 0.37 | 0.255 | 0.424 | 0.204 | 0.439 | 0.184 | 0.175 | 0.17 | 0.151 | 0.197 |  |  |  |  |  |  |  |  |  | 
NCI-H650 | 0.673 | 0.874 | 0.865 | 0.793 | 0.946 | 0.459 | 0.528 | 0.443 | 0.399 | 0.426 | 0.835 | 0.926 | 0.882 | 0.751 | 0.961 |  |  |  |  | 
NCI-H661 | 0.928 | 0.938 | 0.951 | 1.01 | 0.87 | 0.819 | 0.998 | 0.986 | 0.858 | 1.02 | 0.78 | 0.933 | 0.758 | 0.694 | 0.771 |  |  |  |  | 
NCI-H1299 |  |  |  |  |  |  |  |  |  |  | 1.06 | 1.03 | 0.944 | 1.02 | 1.03 | 1.02 | 1.06 | 0.97 | 1.06 | 1.02
NCI-H1395 | 1.02 | 0.78 | 0.73 | 0.646 | 0.615 | 0.403 | 0.478 | 0.428 | 0.36 | 0.376 |  |  |  |  |  | 1.25 | 1.17 | 1.2 |  | 1.23
NCI-H1563 | 0.585 | 0.537 | 0.577 | 0.492 | 0.542 | 0.51 | 0.51 | 0.459 | 0.459 | 0.459 | 1 | 0.918 | 0.843 | 0.75 | 0.824 |  |  |  |  | 
NCI-H1703 |  |  |  |  |  |  |  |  |  |  | 0.473 | 0.315 | 0.509 | 0.364 | 0.375 | 1.49 | 1.21 | 1.25 | 1.1 | 1.25
NCI-H1793 | 0.211 | 0.162 | 0.175 | 0.155 | 0.207 | 0.399 | 0.389 | 0.455 | 0.263 | 0.41 |  |  |  |  |  | 0.977 | 0.365 | 0.455 | 0.386 | 0.519
NCI-H1944 | 0.814 | 0.711 | 0.709 |  | 0.768 | 0.239 | 0.232 | 0.233 |  | 0.233 |  |  |  |  |  | 1.07 | 1.09 | 1.01 | 0.792 | 1.02
NCI-H2170 | 0.603 | 0.729 | 0.682 | 0.403 | 0.719 | 0.585 | 0.713 | 0.579 | 0.499 | 0.59 |  |  |  |  |  | 0.595 | 0.54 | 0.674 |  | 0.564
NCI-H2342 | 0.604 | 0.68 | 0.679 | 0.552 | 1.09 | 0.3 | 0.369 | 0.34 | 0.302 | 0.317 |  |  |  |  |  |  |  |  |  | 
SK-MES-1 | 0.716 | 0.714 | 0.798 | 0.677 | 0.801 | 0.379 | 0.428 | 0.367 | 0.24 | 0.338 |  |  |  |  |  | 1.31 | 1.22 | 1.09 | 1.21 | 1.28
